The text below walks through data of patent US20240139185A1, “COMPOUNDS THAT PARTICIPATE IN COOPERATIVE BINDING AND USES THEREOF” (Revolution Medicines, Inc., priority 2018, published 2024).

Where two headings read alike, the source gives them in different places.

One test addresses cyclophilin A (CYPA) (Homo sapiens, UniProt P62937). The experiment in a line: CYPA-compound binary complex formation by SPR. The conditions noted are these: read-out: CYPA Binding Affinity. The method, boiled down:
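Steady-state fit of SPR responses gave binding affinity. Analyte series: 50 μM downward, 2-fold, 10 points, running buffer HBS-P+ (0.05% Tween20, pH7.4, 2% DMSO), 60 s on/60 s off. Surface: biotinylated CypA-Avi captured at 4 μg/ml against a reference cell, regenerated with NaOH/guanidine.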
A general note: SPR reads the build-up and loss of mass on a sensor chip optically.

For test [1], the target named is T1, BRAF-GTP-KRAS-G12C complex (Homo sapiens, UniProt P01116+P62937, G12C).
T1 construct: 50 nM of His6-KRas G12C-GTP (1-169); 500 nM of tagless CypA (1-165)
The experiment in a line: KRAS-BRAF complex disruption through competition with CYPA-compound by TR-FRET. The following applies: biochemical BRAF-KRAS G12C-GTP disruption assay EC50, with CYPA. The method, boiled down: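 Compound-driven loss of KRAS–BRAF RBD TR-FRET signal, Eu-anti-His/APC-anti-GST pair (10/50 nM, 1.5 h), following a 3 h room-temperature preincubation of 50 nM His6-KRAS G12C-GTP and 500 nM CypA in 25 mM Hepes pH 7.3 buffer. EC50 by 4-parameter fit. Variants used wild-type KRAS in place of G12C or no CypA.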
On the technique in general: In TR-FRET formats the signal depends on donor and acceptor labels being close together.

In a further test the test system is pERK in H358 cells. In words: pERK inhibition in H358 cells. Format: cell-based, human. The conditions noted are these: read-out: Cellular pERK inhibition. As for the experimental part:
H358 cells (5500 cells) derived from a human lung cancer were plated in a 96 well plate in media (100 uL, RPMI with 10% FBS). After 24 hours, cells were treated for 4 hours with compound or DMSO. Cells were washed twice with room temperature TBS (200 uL) and fixed for 20 minutes with 4% paraformaldehyde diluted with TBS (150 uL). Cells were washed four times for five minutes with 0.1% TritonX/TBS (150 uL) to permeabilize the membrane. Cells were incubated with TBS blocking buffer (100 uL) at room temperature for 60 minutes. Primary antibody (Phospho-p44/42 MAPK (Erk1/2) (Thr202/Tyr204) (D13.14.4E) XP® Rabbit mAb #4370, Cell Signaling Technology; 1:200) was added, and the cells were incubated overnight at 4 C. The cells were washed four times for five minutes with 0.1% Tween 20/TBS (150 uL). Secondary antibody (IRDye® 800CW Goat-Anti-Rabbit IgG, Li-Cor Biosciences; 1:1000) and DRAQ5™ (Invitrogen; 1:2000) was added, and the cells were incubated for 1 hour at room temperature. The cells were washed four times for five minutes with 0.1% Tween 20/TBS (150 uL) and scanned using the LICOR (700 and 800 nm).

As usually defined, the EC50 is the concentration needed to bring the measured effect to its halfway point. Read a low EC50 as higher potency in that assay. For the compound `CC1COC(=O)[C@@H]2CCCN(N2)C(=O)[C@@H](NC(=O)[C@H](C(C)C)N(C)C(=O)C2CN(C(=O)CCl)C2)Cc2cc(O)cc(c2)-c2ccc3c(S(C)(=O)=O)cn(c3c2)C1` (single isomer, unassigned) [Compound 111], the Kd at cyclophilin A (CYPA) fell in the range of 5 to 15 µM. The compound also showed an EC50 in test [1] of at most 0.5 µM. Further, the IC50 in the test with pERK in H358 cells (4 hours treatment) was over 10 µM.
On the same counts, the results for `CNC(=O)c1cn2c3cc(ccc13)-c1cc(O)cc(c1)C[C@H](NC(=O)[C@H](C(C)C)N(C)C(=O)C1CN(C(=O)CCl)C1)C(=O)N1CCC[C@H](N1)C(=O)OCC(C)(C)C2` [Compound 108] are 5 to 15 µM, at most 0.5 µM and over 10 µM.
On the same counts, the results for `CC(C)[C@@H](C(=O)N[C@H]1Cc2cc(O)cc(c2)-c2ccc3c4cc(C#N)ccc4n(c3c2)CC(C)(C)COC(=O)[C@@H]2CCCN(N2)C1=O)N(C)C(=O)C1CN(C(=O)CCl)C1` [Compound 68] are at most 5 µM, at most 0.5 µM and 1 to 10 µM.
With `CC(C)C(C(=O)NC1Cc2cc(O)cc(c2)-c2ccc3c(C(=O)N(C)C)cn(c3c2)CC(C)(C)COC(=O)C2CCCN(N2)C1=O)N(C)C(=O)C1CN(C(=O)CCl)C1` (stereo not drawn) [Compound 109], the Kd at cyclophilin A (CYPA) was over 15 µM. Moreover, the concentration giving a half-maximal response (EC50) in test [1] is at most 0.5 µM. Moreover, in the test with pERK in H358 cells (4 hours treatment), the IC50 was over 10 µM.
On the same counts, the results for `CC(C)C(C(=O)NC1Cc2cc(O)cc(c2)-c2ccc3c(C(C)(C)C#N)cn(c3c2)CC(CF)COC(=O)C2CCCN(N2)C1=O)N(C)C(=O)C1CN(C(=O)CCl)C1` (mixture of isomers) [Compound 34] are 5 to 15 µM, at most 0.5 µM and 1 to 10 µM.
For `CCc1cn2c3cc(ccc13)-c1cc(O)cc(c1)CC(NC(=O)C(C(C)C)N(C)C(=O)C1CN(C(=O)CCl)C1)C(=O)N1CCCC(N1)C(=O)OCC(C)(C)C2` (stereo not drawn) [Compound 99], on cyclophilin A (CYPA), the Kd is over 15 µM. This compound gave an EC50 in test [1] of at most 0.5 µM. Also, in the test on pERK in H358 cells (4 hours treatment), the IC50 was at most 1 µM.
As to `CC#CC(=O)N1CCN(C(=O)N(C)[C@H](C(=O)N[C@H]2Cc3cc(O)cc(c3)-c3ccc4c(C(C)(C)C#N)cn(c4c3)CC(C)(C)COC(=O)[C@@H]3CCCN(N3)C2=O)C(C)C)CC1` [Compound 343], on cyclophilin A (CYPA), the Kd was at most 5 µM. In test [1], this compound registered an EC50 of 0.5 to 5 µM. Moreover, the IC50 in the test with pERK in H358 cells (4 hours treatment) is 1 to 10 µM.
On to `CC(C)[C@@H](C(=O)N[C@H]1Cc2cc(O)cc(c2)-c2ccc3nnn(c3c2)CC(C)(C)COC(=O)[C@@H]2CCCN(N2)C1=O)N(C)C(=O)C1CN(C(=O)CCl)C1` [Compound 175], for which the Kd on cyclophilin A (CYPA) was 5 to 15 µM. The same compound showed an EC50 in test [1] of at most 0.5 µM. Moreover, the IC50 with pERK in H358 cells (4 hours treatment) was over 10 µM.
Turning to `CC(C)[C@@H](C(=O)N[C@H]1Cc2cc(O)cc(c2)-c2ccc3c(C#N)cn(c3c2)CC(C)(C)CNC(=O)[C@@H]2CCCN(N2)C1=O)N(C)C(=O)C1CN(C(=O)CCl)C1` [Compound 3, 1-(2-chloroacetyl)-N-((2S)-1-(((6^3S,4S)-1^3-cyano-2^5-hydroxy-10,10-dimethyl-5,7-dioxo-6^1,6^2,6^3,6^4,6^5,6^6-hexahydro-1^1H-8-aza-1(6,1)-indola-6(1,3)-pyridazina-2(1,3)-benzenacycloundecaphane-4-yl)amino)-3-methyl-1-oxobutan-2-yl)-N-methylazetidine-3-carboxamide], the Kd on cyclophilin A (CYPA) was at most 5 µM. This compound displayed an EC50 in test [1] of at most 0.5 µM. Besides, in the test with pERK in H358 cells (Homo sapiens, NCI-H358, 4 hours treatment), the IC50 was over 10 µM.
With `CC1COC(=O)C2CCCN(N2)C(=O)C(NC(=O)C(C(C)C)N(C)C(=O)C2CN(C(=O)CCl)C2)Cc2cc(O)cc(c2)-c2ccc3c(-c4cccc(C#N)c4)cn(c3c2)C1` (stereo not drawn) [Compound 46], the Kd at cyclophilin A (CYPA) was 5 to 15 µM. This compound also registered an EC50 in test [1] of at most 0.5 µM. The IC50 in the test on pERK in H358 cells (4 hours treatment) is at most 1 µM.
As to `CC(C)[C@@H](C(=O)N[C@H]1Cc2cc(O)cc(c2)-c2ccc3c(C(C)(C)C#N)c(C#N)n(c3c2)C[C@H](C)COC(=O)[C@@H]2CCCN(N2)C1=O)N(C)C(=O)C1CN(C(=O)CCl)C1` [Compound 85], the Kd at cyclophilin A (CYPA) is at most 5 µM. Moreover, the EC50 in test [1] is at most 0.5 µM. For the same compound, in the test with pERK in H358 cells (4 hours treatment), the IC50 is at most 1 µM.
Turning to `CC(C)[C@@H](C(=O)N[C@H]1Cc2cc(O)cc(c2)-c2ccc3c(-c4ccnn4C)cn(c3c2)CC(C)(C)COC(=O)[C@@H]2CCCN(N2)C1=O)N(C)C(=O)C1CN(C(=O)CCl)C1` [Compound 239], the Kd at cyclophilin A (CYPA) is at most 5 µM. The compound also showed an EC50 in test [1] of at most 0.5 µM. The IC50 with pERK in H358 cells (4 hours treatment) was 1 to 10 µM.
On the same counts, the results for `Cc1nc2ccc3cc2n1CC1(CC1)COC(=O)[C@@H]1CCCN(N1)C(=O)[C@@H](NC(=O)[C@H](C(C)C)N(C)C(=O)C1CN(C(=O)CCl)C1)Cc1cc(O)cc-3c1` [Compound 151] are 5 to 15 µM, at most 0.5 µM and over 10 µM.
As for `C=CS(=O)(=O)N1CCN([C@H](C(=O)N[C@H]2Cc3cc(O)cc(c3)-c3ccc4nc(C)n(c4c3)CC(C)(C)COC(=O)[C@@H]3CCCN(N3)C2=O)C(C)C)C1=O` [Compound 152], the Kd on cyclophilin A (CYPA) is 5 to 15 µM. This compound also gave an EC50 in test [1] of at most 0.5 µM. For the same compound, in the test with pERK in H358 cells (4 hours treatment), the IC50 was in the range of 1 to 10 µM.
On the same counts, the results for `CC(C)C(C(=O)NC1Cc2cc(O)cc(c2)-c2ccc3c(C(C)(C)C#N)cn(c3c2)CC(C(F)F)COC(=O)C2CCCN(N2)C1=O)N(C)C(=O)C1CN(C(=O)CCl)C1` (single isomer, unassigned) [Compound 36] are 5 to 15 µM, at most 0.5 µM and 1 to 10 µM.
With `CC(C)[C@@H](C(=O)N[C@H]1Cc2cc(O)cc(c2)-c2ccc3c(C4CC4)cn(c3c2)C[C@H](C)COC(=O)[C@@H]2CCCN(N2)C1=O)N(C)C(=O)C1CN(C(=O)CCl)C1` [Compound 117], the Kd on cyclophilin A (CYPA) was 5 to 15 µM. In test [1], this compound returned a half-maximal effective concentration (EC50) of at most 0.5 µM. Moreover, the IC50 with pERK in H358 cells (4 hours treatment) was at most 1 µM.
On the same counts, the results for `COCC1COC(=O)C2CCCN(N2)C(=O)C(NC(=O)C(C(C)C)N(C)C(=O)C2CN(C(=O)CCl)C2)Cc2cc(O)cc(c2)-c2ccc3c(C(C)(C)C#N)cn(c3c2)C1` (single isomer, unassigned) [Compound 24] are 5 to 15 µM, at most 0.5 µM and at most 1 µM.
Take `C=CC(=O)N1CCC(C(=O)N(C)C(C(=O)NC2Cc3cc(O)cc(c3)-c3ccc4c(c3)N(CC(C)(C)COC(=O)C3CCCN(N3)C2=O)CC4(C=CC#N)COC)C(C)C)C1` (stereo not drawn) [Compound 404]: on cyclophilin A (CYPA), the Kd is over 15 µM. Moreover, the EC50 in test [1] was at most 0.5 µM. Moreover, in the test on pERK in H358 cells (4 hours treatment), the IC50 was in the range of 1 to 10 µM.
In the case of `CN(C(=O)C1CN(C(=O)CCl)C1)[C@@H](CC1CC1)C(=O)N[C@H]1Cc2cc(O)cc(c2)-c2ccc3c(C(C)(C)C#N)cn(c3c2)CC(C)(C)COC(=O)[C@@H]2CCCN(N2)C1=O` [Compound 57], the Kd at cyclophilin A (CYPA) was over 15 µM. The EC50 in test [1] is at most 0.5 µM. Besides, the IC50 in the test with pERK in H358 cells (4 hours treatment) fell in the range of 1 to 10 µM.
On the same counts, the results for `C#CCOCc1cc2ccc3cc2n1C[C@H](C)COC(=O)[C@@H]1CCCN(N1)C(=O)[C@@H](NC(=O)[C@H](C(C)C)N(C)C(=O)C1CN(C(=O)CCl)C1)Cc1cc(O)cc-3c1` [Compound 91] are 5 to 15 µM, 0.5 to 5 µM and 1 to 10 µM.
On the same counts, the results for `CC(C)[C@@H](C(=O)N[C@H]1Cc2cc(O)cc(c2)-c2ccc3ncn(c3c2)CC(C)(C)COC(=O)[C@@H]2CCCN(N2)C1=O)N(C)C(=O)C1CN(C(=O)CCl)C1` [Compound 139] are 5 to 15 µM, at most 0.5 µM and over 10 µM.
